# Assay results taken from patent US7179821B2, “Method of treating of demyelinating diseases or conditions” (Aventis Pharmaceuticals Inc., priority 2001, dated 2007).
# “And” between values parts separate entries of the source, which are not always exact repeats. Equal values may be shown once. Marks after values point to notes of the source that are not given here.
# Assays:
# SCI and MS patients = conditions: cited from earlier work
# [1] = test system: RuR-induced flaccid paralysis; assay: Antagonism of ruthenium red (RuR)-induced flaccid paralysis, flagpole test; format: in vivo, mouse; conditions: for antagonism of the flaccid paralysis induced by ip RuR (conclusion): doses of Table 3
# Protocol: Method and Results: Groups of 4–5 mice (CD-1; Charles River; 25–35 grams) were separately but simultaneously injected ip with ruthenium red and vehicle (1% glacial acetic acid), ruthenium red and 4-AP, or ruthenium red and HP 184. The compound known as “8183” was also tested in this paradigm. Starting at 15 minutes after injections, mice were placed near a “flagpole” apparatus and their ability to support their own body weight (ie, to hold on to the flagpole and not fall) was recorded. Results were recorded as the number of mice that could support their own body weight versus the total number of mice tested. All experiments were performed between 2PM and 4:30PM.
# [2] = test system: moderate chronic (35 days post-injury) spinal cord crush; assay: Long standing moderate spinal cord crush (35 days), OFT score; format: in vivo, rat
# Description: A tabular representation of the results from both chronic spinal cord injury studies (drugs first administered 25 days after a mild spinal cord crush and 35 days after a moderate spinal cord crush) are shown in Table 5.
# One hundred fifty adult female Wistar rats, 250–300 g weight, obtained from Charles River were housed in the McMaster University Health Sciences Centre (HSC) Central Animal Facilities (CAF) for at least one week. During that time they were exposed to the performance tests described below, to ensure they were familiar with them. Rats were handled daily for 2 weeks prior to surgery.
# Rats were anesthetized using isoflurane (3–5%): O2 (1 L/min) in an appropriately equipped surgical suite in the CAF. Temgesic (0.03 mg/kg body weight, subcutaneously (SQ)) was administered prior to surgery for pain relief. Spinal cords were crushed (compressed) with a 3.5 mm wide modified coverslip forceps (Blight 1991, procedure revised by Rathbone laboratory). The forceps were closed to 1.4 mm for 15 sec, which produced injury level equivalent to the mid-level (moderate) outcome on the Gruner scale (1996). The compression injury was otherwise performed according to the procedure described by Blight (1991).
# Changes in locomotor behaviour and segmental reflexes were assessed up to 5 weeks post injury. Animals were tested in an open field walking task, hind limb placement and foot orientation. The animals were evaluated on days 2, 7, 14, 21, 28 and 35 after surgery. By 35 days after surgery, almost no further spontaneous recovery occurs. Therefore treatment began on day 35.
# HP184 was dissolved in sterilized (autoclaved) deionized reverse-osmosis water acidified with glacial acetic acid (0.1 ml acid per 10 ml of water). 4-AP (Sigma, molecular weight 94.12; Jankowska E. et al., 1982; Gruner et al., 1999) was dissolved in physiological saline (0.6 mg/kg b.w.) and was administered by i.p. injection. One group of rats (vehicle control-1) received by oral gavage vehicle. Behaviourial testing was done immediately prior to receiving the gavage and at 3 hours thereafter. Then, the rats were scarified on day 35. All the other rats received either HP184 by oral gavage (0.3, 1, or 3 mg/kg bw depending on the group) or 4-AP (0.6 mg/kg, i.p.) or vehicle (vehicle control-2) once a day on the 35 to 42 days after surgery. On these days behaviourial tests were done immediately prior to receiving the gavage at 3 and 24 hours thereafter. Then, the rats were perfused on day 43 after the last behaviourial testing.
# Statistical analyses were performed on a Macintosh computer using GB-Stat ppc 6.5.2. The behavioral scores were analyzed by the Kruskal-Wallis nonparametric analysis of variance (ANOVA). Post hoc comparisons were made using Mann-Whitney U tests.
# [3] = test system: demyelinated area at the moderate compression injury site; assay: Histological study of spinal cords, demyelinated area (luxol fast blue); format: in vivo, rat; conditions: HP184 0.3, 1 or 3 mg/kg po or 4-AP 0.6 mg/kg ip, days 35–42 after moderate crush
# Protocol: A study to test whether the treatment with HP184 affected the amount of myelin in rats with moderate long term spinal cord crush injury when administered long after spinal cord injury.
# The spinal cords from rats described above in the assessment were used for this study.
# (50–60 mg/kg body weight, i.p.) and perfused transcardically—first with 100 mL 0.05M phosphate buffed saline (PBS) containing 0.1% heparin, followed by 300–500 mL of 4% paraformaldehyde (PFA). Segments T9 to L1 of the spinal cords were taken out, then cryo-protected in 30% sucrose solution and frozen at −70° C. in 10.24% polyvinyl alcohol and 4.26% polyethylene glycol.
# A segment of each cord including the lesion site plus 10 mm rostral and caudal to the lesion site was embedded in Tissue Tek medium. Serial sections were cut longitudinally at 20 μm intervals on a cryostat. Every third section was stained with luxol fast blue for myelin. The evaluation was performed by observers blinded as to treatment, on coded slides. Sections were examined under a light microscope for the extent of demyelination (the area without luxol fast blue staining).
# For determinations of the maximal demyelinated area of the cord, the whole section was digitized on photographs using a Zeiss microscope. The extent of demyelination was measured at the lesion center using a computerized Bioquant BQ-TCW98 image analysis progrem by an investigator who was blind to treatment group.
# Statistical analysis was performed on a Macintosh computer using GB-Stat ppc 6.5.2. The histological results were analyzed by the Kruskal-Wallis nonparametric analysis of variance (ANOVA). Post hoc comparisons were made using Mann-Whitney U tests.
# [4] = test system: long-standing (25 days) spinal cord injury of minor intensity; assay: Chronic crush experiment, 25-day old mild compression injury (1.6 mm), OFT score; format: in vivo, rat
# Description: Normal spinal cord diameter is approximately 2.5 mm. This compression represents a moderate injury characterized by initial open field walking scores of 1.5–2.5 in the Open Field Walking Scale. […] The spinal cords of female rats were exposed to laminectomy or crush to a diameter of 1.6 mm. This represented a minor injury, and was designed to result in OFT scores of 4.0 after 25 days of no treatment. […] In this experiment, OFT scores were slightly higher (4.3–4.5), leaving only a small window for improvement. […] Consistent improvement was also observed after once a day ip 0.6 mg/kg 4-AP as well. The statistical differences were based upon the changes for each individual rat (each rat was its own control) using Mann-Whitney U-test. All the behavioral tests on day1, day2 and day3 were performed at 3 hours after gavage. There was no drug given on day3 (first day started to give drug was day 0).
# [5] = test system: mechanical hyperalgesia after nerve ligation; assay: Neuropathic pain model, spinal nerve constriction, von Frey paw withdrawal threshold; format: in vivo, rat; conditions: 90 mg/kg sc, tested 45 minutes after dosing
# Protocol: Adult male Sprague-Dawley rats received unilateral constriction of the L6 nerve to produce chronic nerve injury. Following recovery from surgery (3–7 days post operative) animals were tested for paw withdrawal threshold to mechanical stimuli applied to the affected paw. This was determined by the application of calibrated von Frey monofilaments to the plantar surface of each hindpaw. Only animals with a 50% decrease in withdrawal threshold in the ligated paw were employed in the study, and were randomly assigned to one of 6 groups: three groups receiving one of three doses of HP 184 (0.3, 3 and 20 mg/kg, po), a fourth group receiving a single dose of another compound referred to MDL (10 mg/kg, ip), a fifth group receiving gabapentin (90 mg/kg, sc), and a sixth group receiving vehicle only. Behavioral testing occurred 45 minutes following the gabapentin (90 mg/kg, sc), and 3 hours following the HP 184, MDL, and vehicle. A difference score between the ligated and non-ligated paw withdrawal thresholds is calculated for each animal, and these differences were subjected to ANOVA with group as the main factor. […] Analysis was between/within repeated measures ANOVA. […]
# [6] = 0.3 mg/kg ip with RuR 30 mg/kg ip, 15 min
# [7] = 0.3 mg/kg ip with RuR 30 mg/kg ip, 30 min
# [8] = 0.3 mg/kg ip with RuR 30 mg/kg ip, 45 min
# [9] = 0.6 mg/kg ip with RuR 30 mg/kg ip, 15 min
# [10] = 0.6 mg/kg ip with RuR 30 mg/kg ip, 30 min
# [11] = 0.6 mg/kg ip with RuR 30 mg/kg ip, 45 min
# [12] = 30 mg/kg ip with RuR 30 mg/kg ip, 15 min
# [13] = 30 mg/kg ip with RuR 30 mg/kg ip, 30 min
# [14] = 30 mg/kg ip with RuR 30 mg/kg ip, 45 min
# [15] = 100 mg/kg ip with RuR 30 mg/kg ip, 15 min
# [16] = 100 mg/kg ip with RuR 30 mg/kg ip, 30 min
# [17] = 100 mg/kg ip with RuR 30 mg/kg ip, 45 min
# [18] = 10 mg/kg ip with RuR 30 mg/kg ip, 15 min
# [19] = 10 mg/kg ip with RuR 30 mg/kg ip, 30 min
# [20] = 10 mg/kg ip with RuR 30 mg/kg ip, 45 min
molecule,measurement,setting,value
"Nc1ccncc1 [4-AP, 4-amino pyridine]","doses at which restlessness, confusion and generalized tonic-clonic seizures have been reported","SCI and MS patients; Ball et al, 1979, Bever et al, 1994",higher than 0.8 mg/kg
same,serum level necessary for significant improvement,"SCI and MS patients; MS patients, oral administration (Van Diemen et al, 1993)",33 to 75 ng/mL
same,serum level at which a grand mal seizure was reported,"SCI and MS patients; human study (Bever et al, 1994)",104 ng/mL
same,% of mice that could support their own body weight,[1]; [6],(88%)
same,number of mice that could support their own body weight versus total tested,[1]; [6],22 out of 25
same,% of mice that could support their own body weight,[1]; [7],(52%)
same,number of mice that could support their own body weight versus total tested,[1]; [7],13 out of 25
same,% of mice that could support their own body weight,[1]; [8],(48%)
same,number of mice that could support their own body weight versus total tested,[1]; [8],12 out of 25
same,% of mice that could support their own body weight,[1]; [9],(85.7%)
same,number of mice that could support their own body weight versus total tested,[1]; [9],12 out of 14
same,% of mice that could support their own body weight,[1]; [10],(57.1)
same,number of mice that could support their own body weight versus total tested,[1]; [10],8 out of 14
same,% of mice that could support their own body weight,[1]; [11],(57.1%)
same,number of mice that could support their own body weight versus total tested,[1]; [11],8 out of 14
same,antagonism of the flaccid paralysis induced by ip RuR (conclusion),[1],can antagonize the flaccid paralysis
same,"motor recovery, Open Field Walking Test","[2]; 0.6 mg/kg ip, thirty-five days after moderate injury",similarly effective
same,"% possible improvement, moderate",[2]; 0.6 mpk ip,22.1%*
same,"Delta of OFT score, Day 35 to Day 39 (moderate)",[2]; 0.6 mpk ip,.22
same,OFT score Day 39 (moderate) 3 hrs after last dose,[2]; 0.6 mpk ip daily,4.17 ± .047
same,"open field locomotor ability (mean OFT scores) vs vehicle, FIGS. 6a and 6b","[2]; HP184 0.3, 1 or 3 mg/kg po or 4-AP 0.6 mg/kg ip once a day, days 35–42, treatment effect p<0.01",significantly different from that of control animals receiving vehicle
same,OFT score Day 35 (moderate) prior,"[2]; group 0.6 mpk ip, baseline before dosing",3.95 ± .084
same,"myelinated / demyelinated area at the crush center, FIG. 7",[3],significantly greater myelinated area than that of saline controls
same,OFT improvement compared to vehicle control (Mann-Whitney U-test),"[4]; 0.6 mg/kg ip once a day, p=0.0027",significant improvement at 90 min to 3 h and 12 h to day 2
same,"OFT score 3 hours after last dose (Day 28, mild)","[4]; 0.6 mg/kg ip once a day, three consecutive daily doses",4.53 ± 0.02 and 4.53 ± .023
same,"% possible improvement (highest score = 5), mild",[4]; 0.6 mpk ip,17.5%*
same,"Delta of OFT score, Day 25 to Day 28 (mild)",[4]; 0.6 mpk ip,.10
same,"OFT score prior to dose (Day 25, mild)","[4]; group 0.6 mg/kg ip, baseline before dosing",4.43 ± 0.03 and 4.43 ± .030
Cc1cn(Nc2ccncc2F)c2ccccc12 [compound 8183],% of mice that could support their own body weight,[1]; [12],(92.8%)
same,number of mice that could support their own body weight versus total tested,[1]; [12],13 out of 14
same,% of mice that could support their own body weight,[1]; [13],(92.8%)
same,number of mice that could support their own body weight versus total tested,[1]; [13],13 out of 14
same,% of mice that could support their own body weight,[1]; [14],(100%)
same,number of mice that could support their own body weight versus total tested,[1]; [14],14 out of 14
diphenylhydaintoin [DPH],% of mice that could support their own body weight,[1]; [12],(26.7%)
same,number of mice that could support their own body weight versus total tested,[1]; [12],4 out of 15
same,% of mice that could support their own body weight,[1]; [13],(20%)
same,number of mice that could support their own body weight versus total tested,[1]; [13],3 out of 15
same,% of mice that could support their own body weight,[1]; [14],(26.7%)
same,number of mice that could support their own body weight versus total tested,[1]; [14],4 out of 15
same,% of mice that could support their own body weight,[1]; [15],(55%)
same,number of mice that could support their own body weight versus total tested,[1]; [15],11 out of 20
same,% of mice that could support their own body weight,[1]; [16],(50%)
same,number of mice that could support their own body weight versus total tested,[1]; [16],10 out of 20
same,% of mice that could support their own body weight,[1]; [17],(50%)
same,number of mice that could support their own body weight versus total tested,[1]; [17],10 out of 20
same,antagonism of the flaccid paralysis induced by ip RuR (conclusion),[1],lack of effect
"NCC1(CC(=O)O)CCCCC1 [gabapentin, reference compound]","mechanical hyperalgesia, difference of ligated minus normal paw withdrawal threshold, FIG. 10",[5],clear reversal of hyperalgesia
"Nc1nc2ccc(OC(F)(F)F)cc2s1 [RIL, riluzole]",% of mice that could support their own body weight,[1]; [18],(60%)
same,number of mice that could support their own body weight versus total tested,[1]; [18],9 out of 15
same,% of mice that could support their own body weight,[1]; [19],(26.7%)
same,number of mice that could support their own body weight versus total tested,[1]; [19],4 out of 15
same,% of mice that could support their own body weight,[1]; [20],(26.7%)
same,number of mice that could support their own body weight versus total tested,[1]; [20],4 out of 15
same,antagonism of the flaccid paralysis induced by ip RuR (conclusion),[1],lack of effect
